Patent publication US5389614A (Cassella AG, priority 1991, dated 1995)
Where two headings read alike, the source gives them in different places.

Key:
[1] = target: T1, fibrinogen receptor (glycoprotein IIb/IIIa) (Homo sapiens, UniProt P05106+P08514); assay: Inhibition of bonding of 125I-fibrinogen to its receptor on intact, gel-filtered human platelets; format: binding; conditions: inhibition of 125I-fibrinogen bonding after stimulation with ADP (10 μM), read-out: K1 (μm), ADP stimulated
T1 construct: its receptor (glycoprotein IIb/IIIa) on intact, gel-filtered human platelets; endogenous in cells; host or cells: gel-filtered human platelets from donor blood, stimulated with ADP (10 µM)
Protocol: (§1) The compounds are tested above all for their inhibiting action on blood platelet aggregation and the adhesion of fibrinogen to blood platelets.
(§2) Gel-filtered blood platelets from human donor blood activated with ADP or thrombin are used.
A) Inhibition of bonding of fibrinogen to its receptor (glycoprotein IIb/IIIa) on intact, gel-filtered human platelets by the compounds according to the invention is tested. The Ki value of the inhibition of the bonding of ^125 I-fibrinogen after stimulation with ADP (10 μM) is stated.
Literature: J. S. Bennett and G. Vilaire, J. Clin. Invest. 64 (1979), 1393-1401

[2] = system: gel-filtered human platelets; assay: Inhibition of aggregation of gel-filtered human platelets after ADP or thrombin stimulation; format: cell-based; conditions: platelet aggregation
Protocol: as §1, §2
B) As a functional test, the inhibition of aggregation of gel-filtered human platelets by the compounds according to the invention after ADP or thrombin stimulation is measured. The IC50 value of the inhibition is stated.

[3] = ADP stimulation, read-out: IC50 (μM), ADP-stimulated
[4] = thrombin stimulation, read-out: IC50 (μM), Thrombin-stimulated
[5] = Homo sapiens, ADP stimulation, read-out: IC50 (μM), ADP-stimulated
[6] = Homo sapiens, thrombin stimulation, read-out: IC50 (μM), Thrombin-stimulated

T1 sequence (P08514 32-887 limits assumed): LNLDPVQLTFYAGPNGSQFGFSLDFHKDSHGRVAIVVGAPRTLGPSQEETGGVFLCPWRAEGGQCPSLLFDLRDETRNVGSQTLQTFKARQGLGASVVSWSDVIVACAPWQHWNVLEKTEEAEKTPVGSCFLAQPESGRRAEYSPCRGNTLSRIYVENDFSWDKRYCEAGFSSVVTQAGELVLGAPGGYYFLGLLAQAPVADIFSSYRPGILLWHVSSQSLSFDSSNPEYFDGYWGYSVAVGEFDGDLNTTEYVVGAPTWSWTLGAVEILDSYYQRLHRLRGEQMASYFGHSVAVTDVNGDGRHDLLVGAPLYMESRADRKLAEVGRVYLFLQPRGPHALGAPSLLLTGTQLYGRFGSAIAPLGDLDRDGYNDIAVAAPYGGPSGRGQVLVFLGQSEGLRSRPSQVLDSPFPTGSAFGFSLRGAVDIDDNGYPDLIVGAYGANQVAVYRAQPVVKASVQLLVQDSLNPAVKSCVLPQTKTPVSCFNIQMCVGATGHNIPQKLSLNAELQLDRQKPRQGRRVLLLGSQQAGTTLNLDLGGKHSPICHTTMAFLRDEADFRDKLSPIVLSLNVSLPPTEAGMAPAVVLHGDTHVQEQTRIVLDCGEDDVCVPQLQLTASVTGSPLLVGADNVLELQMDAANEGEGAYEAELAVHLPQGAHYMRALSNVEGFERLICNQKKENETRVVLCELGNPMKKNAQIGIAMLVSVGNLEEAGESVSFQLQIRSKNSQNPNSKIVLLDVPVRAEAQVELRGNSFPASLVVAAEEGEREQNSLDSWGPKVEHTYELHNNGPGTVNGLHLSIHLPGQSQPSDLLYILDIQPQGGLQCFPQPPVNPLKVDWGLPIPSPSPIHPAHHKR
T1 sequence (P08514 891-1039 partner limits assumed): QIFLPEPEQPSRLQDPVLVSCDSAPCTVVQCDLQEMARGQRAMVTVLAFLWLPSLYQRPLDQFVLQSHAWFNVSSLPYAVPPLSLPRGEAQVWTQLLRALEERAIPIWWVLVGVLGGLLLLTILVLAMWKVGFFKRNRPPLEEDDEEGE
T1 sequence (P05106 27-788): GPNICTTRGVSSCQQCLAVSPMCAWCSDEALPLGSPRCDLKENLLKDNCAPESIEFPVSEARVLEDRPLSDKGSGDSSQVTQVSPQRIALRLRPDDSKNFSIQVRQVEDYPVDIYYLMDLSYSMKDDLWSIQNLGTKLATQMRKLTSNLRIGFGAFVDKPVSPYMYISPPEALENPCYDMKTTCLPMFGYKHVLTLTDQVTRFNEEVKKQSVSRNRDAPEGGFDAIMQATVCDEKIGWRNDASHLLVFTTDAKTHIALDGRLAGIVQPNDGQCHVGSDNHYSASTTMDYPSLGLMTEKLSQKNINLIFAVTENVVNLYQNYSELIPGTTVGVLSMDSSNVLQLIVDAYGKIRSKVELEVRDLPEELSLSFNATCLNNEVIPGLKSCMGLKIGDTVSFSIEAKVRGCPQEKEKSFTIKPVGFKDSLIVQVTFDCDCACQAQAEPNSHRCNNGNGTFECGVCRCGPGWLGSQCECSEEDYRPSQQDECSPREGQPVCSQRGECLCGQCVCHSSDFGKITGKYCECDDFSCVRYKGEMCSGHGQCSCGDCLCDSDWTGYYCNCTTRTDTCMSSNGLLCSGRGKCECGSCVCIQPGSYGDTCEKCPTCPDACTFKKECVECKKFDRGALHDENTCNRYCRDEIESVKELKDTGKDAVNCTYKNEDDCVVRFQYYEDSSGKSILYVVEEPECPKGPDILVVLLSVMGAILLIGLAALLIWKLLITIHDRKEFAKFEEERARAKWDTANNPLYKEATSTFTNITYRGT

SMILES: N=C(N)c1ccc(CC2NC(=O)N(CC(=O)N[C@@H](CC(=O)O)C(=O)N[C@H](C(=O)O)c3ccccc3)C2=O)cc1 (stereo partly drawn) [Example 5, [5-(S,R)-(4-Formamidino-benzyl) -2,4-dioxoimidazolidin-3-yl]-acetyl-L-aspartyl-L-phenylglycine]
- Ki [1]: 22 nM
- IC50 [2, 3]: 0.2 µM
- IC50 [2, 4]: 0.1 µM

SMILES: CCCCCCCCCCCCCCCCOC(=O)[C@@H](NC(=O)[C@H](CC(=O)O)NC(=O)CN1C(=O)NC(Cc2ccc(C(=N)N)cc2)C1=O)c1ccccc1 (some centres unmarked) [Example 17]
- IC50 [2, 3]: 4.5 µM
- IC50 [2, 4]: 4 µM

SMILES: CC(C)[C@H](NC(=O)[C@H](CC(=O)O)NC(=O)CCN1C(=O)N[C@@H](CCCCN)C1=O)C(=O)O [Example 32]
- Ki [1]: 2710 nM
- IC50 [2, 5]: 6 µM
- IC50 [2, 6]: 2 µM

SMILES: N=C(N)c1ccc(CC2NC(=O)N(CC(=O)N[C@@H](CC(=O)O)C(=O)N[C@@H](Cc3c[nH]c4ccccc34)C(=O)O)C2=O)cc1 (stereo partly drawn) [Example 22, (5-(R,S)-(4-Formamidinobenzyl)-2,4-dioxo-imidazolidin-3-yl)-acetyl-L-aspartyl-L-tryptophan]
- Ki [1]: 140 nM
- IC50 [2, 3]: 0.8 µM
- IC50 [2, 4]: 0.25 µM

SMILES: CC[C@H](C)[C@H](NC(=O)[C@H](CC(=O)O)NC(=O)CN1C(=O)NC(Cc2ccc(C(=N)N)cc2)C1=O)C(=O)O (stereo partly drawn) [Example 12, (5-(R,S)-(4-Formamidinobenzyl)-2,4-dioxo-imidazolidin-3-yl)-acetyl-L-aspartyl-L-isoleucine]
- Ki [1]: 42 nM
- IC50 [2, 3]: 0.2 µM
- IC50 [2, 4]: 0.1 µM

SMILES: CC(C)[C@H](NC(=O)[C@H](CC(=O)O)NC(=O)CN1C(=O)[C@H](CCCNC(=N)N)N(C)C1=O)C(=O)O [Example 2]
- Ki [1]: 400 nM
- IC50 [2, 5]: 4.5 µM
- IC50 [2, 6]: 1.5 µM

SMILES: CN(C(=O)[C@H](CC(=O)O)NC(=O)CN1C(=O)NC(Cc2ccc(C(=N)N)cc2)C1=O)[C@H](C(=O)O)c1ccccc1 (stereo partly drawn) [Example 20, (5-(R,S)-(4-Formamidinobenzyl)-2,4-dioxo-imidazolidin-3-yl)-acetyl-L-aspartyl-(N-methyl)-L-phenylglycine]
- Ki [1]: 1590 nM
- IC50 [2, 3]: 4.5 µM
- IC50 [2, 4]: 2.5 µM

SMILES: N=C(N)c1ccc(CC2NC(=O)N(CC(=O)N[C@@H](CC(=O)O)C(=O)N[C@@H](Cc3ccccc3)C(=O)O)C2=O)cc1 (stereo partly drawn) [Example 14, (5-(R,S)-(4-Formamidinobenzyl)-2,4-dioxo-imidazolidin-3-yl)-acetyl-L-aspartyl-L-phenylalanine]
- Ki [1]: 270 nM
- IC50 [2, 3]: 0.55 µM
- IC50 [2, 4]: 0.3 µM

SMILES: N=C(N)c1ccc(CC2NC(=O)N(CC(=O)NCCC(=O)O)C2=O)cc1 (racemic) [Example 6, [5-(S,R)-(4-Formamidino-benzyl) -2,4-dioxoimidazolidin-3-yl]-acetyl-β-alanine]
- Ki [1]: 1910 nM
- IC50 [2, 3]: 5.5 µM
- IC50 [2, 4]: 3 µM

SMILES: CC(C)[C@H](NC(=O)[C@H](CC(=O)O)NC(=O)CN1C(=O)N[C@@H](CCCCN)C1=O)C(=O)O [Example 3, [5-(S)-(4-Amino-butyl)-2,4-dioxoimidazolidin-3-yl]-acetyl-Asp-Val-OH]
- IC50 [2, 3]: 30 µM
- IC50 [2, 4]: 4 µM

SMILES: N=C(N)c1ccc(CC2NC(=O)N(CC(=O)N[C@@H](CC(=O)O)C(=O)N[C@@H](CCCCN)C(=O)O)C2=O)cc1 (stereo partly drawn) [Example 13, (5-(R, S)-(4-Formamidinobenzyl)-2,4-dioxo-imidazolidin-3-yl) -acetyl-L-aspartyl-L-lysine]
- Ki [1]: 42 nM
- IC50 [2, 3]: 0.35 µM
- IC50 [2, 4]: 0.4 µM

SMILES: CC(C)[C@H](NC(=O)[C@H](CC(=O)O)NC(=O)CN1C(=O)N[C@@H](Cc2ccc(NC(=N)N)cc2)C1=O)C(=O)O [Example 8]
- Ki [1]: 710 nM
- IC50 [2, 5]: 6 µM
- IC50 [2, 6]: 3 µM

SMILES: NCc1ccc(C=C2NC(=O)N(CC(=O)N[C@@H](CC(=O)O)C(=O)N[C@H](C(=O)O)c3ccccc3)C2=O)cc1 [Example 15]
- Ki [1]: 280 nM
- IC50 [2, 5]: 0.7 µM
- IC50 [2, 6]: 0.45 µM

SMILES: CC(C)[C@H](NC(=O)[C@H](CC(=O)O)NC(=O)CN1C(=O)NC(Cc2ccc(C(=N)N)cc2)C1=O)C(=O)OCc1ccccc1 (stereo partly drawn) [Example 21, (5-(R,S)-(4-Formamidinobenzyl) -2,4-dioxo-imidazolidin-3-yl) -acetyl-L-aspartyl-L-valine benzyl ester]
- Ki [1]: 240 nM
- IC50 [2, 3]: 0.7 µM
- IC50 [2, 4]: 0.3 µM

SMILES: C[C@@H](O)[C@H](NC(=O)[C@H](CC(=O)O)NC(=O)CN1C(=O)NC(Cc2ccc(C(=N)N)cc2)C1=O)C(=O)O (stereo partly drawn) [Example 16, (5-(R,S)-(4-Formamidinobenzyl)-2,4-dioxo-imidazolidin-3-yl) -acetyl-L-aspartyl-L-threonine]
- Ki [1]: 120 nM
- IC50 [2, 3]: 0.7 µM
- IC50 [2, 4]: 0.2 µM

SMILES: CC(C)[C@H](NC(=O)[C@H](CC(=O)O)NC(=O)CN1C(=O)NC(Cc2ccc(C(=N)N)cc2)C1=O)C(=O)O (stereo partly drawn) [Example 1, [5-(S,R )-(4-Formamidino-benzyl)-2,4-dioxoimidazolidin-3-yl]-acetyl-L-aspartyl-L-valine.]
- Ki [1]: 31 nM
- IC50 [2, 3]: 0.4 µM
- IC50 [2, 4]: 0.15 µM

SMILES: CC(C)[C@H](NC(=O)[C@H](CC(=O)O)NC(=O)c1cccc(N2C(=O)N[C@@H](CCCNC(=N)N)C2=O)c1)C(=O)O [Example 11, 3-(5-(S)-(3-Guanidinopropyl)-2,4-dioxoimidazolidin-3-yl)benzoyl-L-aspartyl-L-valine]
- Ki [1]: 1870 nM

SMILES: CC(C)[C@H](NC(=O)[C@H](CC(=O)O)NC(=O)CN1C(=O)N[C@@H](Cc2ccc(N)cc2)C1=O)C(=O)O [Example 7]
- Ki [1]: 2430 nM

SMILES: NCc1ccc(CC2NC(=O)N(CC(=O)N[C@@H](CC(=O)O)C(=O)N[C@H](C(=O)O)c3ccccc3)C2=O)cc1 (stereo partly drawn) [Example 19, (5-(4-Aminomethylbenzyl)-2,4-dioxo-imidazolidin-3-yl)-acetyl-L-aspartyl-L-phenyglycine]
- IC50 [2, 3]: 7 µM
- IC50 [2, 4]: 2.5 µM
